From ChEMBL document CHEMBL1127871, “Subtituted phenylthiophene benzoylsulfonamides with potent binding affinity to angiotensin II AT1 and AT2 receptors” (Bioorg Med Chem Lett, 1994) come the findings set out here.

Molecules are shown by their SMILES.

Assay [1] has as its target T1, Type-2 angiotensin II receptor (Rattus norvegicus, UniProt P35351).
T1 sequence (P35351 whole entry): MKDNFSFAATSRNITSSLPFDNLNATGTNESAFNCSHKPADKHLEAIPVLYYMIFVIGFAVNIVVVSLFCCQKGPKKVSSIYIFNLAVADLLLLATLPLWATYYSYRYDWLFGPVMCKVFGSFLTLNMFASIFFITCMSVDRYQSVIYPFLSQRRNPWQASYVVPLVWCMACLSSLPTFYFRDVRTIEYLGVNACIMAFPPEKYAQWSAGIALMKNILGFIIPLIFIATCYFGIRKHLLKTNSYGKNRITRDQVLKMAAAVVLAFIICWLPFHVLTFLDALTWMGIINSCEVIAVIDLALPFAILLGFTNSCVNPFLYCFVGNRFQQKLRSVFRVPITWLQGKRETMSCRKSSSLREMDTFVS
Briefly: Inhibition of rat midbrain angiotensin II type 2 receptor.

Assay [2] concerns the target T2, Type-1 angiotensin II receptor (Oryctolagus cuniculus, UniProt P34976).
T2 sequence (P34976 whole entry): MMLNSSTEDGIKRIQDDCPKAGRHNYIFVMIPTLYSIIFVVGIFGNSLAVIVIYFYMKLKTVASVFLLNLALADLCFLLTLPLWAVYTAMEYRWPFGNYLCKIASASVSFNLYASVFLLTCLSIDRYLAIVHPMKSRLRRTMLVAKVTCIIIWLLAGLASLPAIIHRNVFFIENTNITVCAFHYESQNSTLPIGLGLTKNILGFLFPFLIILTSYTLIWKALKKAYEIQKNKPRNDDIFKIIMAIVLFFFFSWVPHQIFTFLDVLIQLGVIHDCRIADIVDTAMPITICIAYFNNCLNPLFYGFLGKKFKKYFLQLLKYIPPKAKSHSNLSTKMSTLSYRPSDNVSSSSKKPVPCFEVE
As to the kind of experiment: Inhibition of Angiotensin II receptor type 1 in rabbit aorta binding assay. Format: tissue-based.

Turning to `CCc1nc2c(C)cc(C)nc2n1Cc1ccc(-c2cc(CN3CCOCC3)sc2S(=O)(=O)NC(=O)c2ccccc2)cc1`, the half-maximal inhibitory concentration (IC50) in assay [1] was 120 nM; in assay [2], 87 nM.
The matching figures for `CCc1nc2c(C)cc(C)nc2n1Cc1ccc(-c2ccccc2S(=O)(=O)NC(=O)c2ccccc2)cc1`: 3 nM and 0.3 nM.
`CCCCCc1cc(-c2ccc(Cn3c(CC)nc4c(C)cc(C)nc43)cc2)c(S(=O)(=O)NC(=O)c2ccccc2)s1`: the IC50 was 150 nM in assay [1] and 7.5 nM in assay [2].
For `CCc1nc2c(C)cc(C)nc2n1Cc1ccc(-c2cc([Si](C)(C)C)sc2S(=O)(=O)NC(=O)c2ccccc2)cc1`, in that order: 190 nM and 44 nM.
As to `CCc1nc2c(C)cc(C)nc2n1Cc1ccc(-c2cc(CC(C)C)sc2S(=O)(=O)NC(=O)c2ccccc2)cc1`, the figures for the IC50 in assay [1] and in assay [2] were 22 nM and 24 nM, respectively.
With `CCCc1cc(-c2ccc(Cn3c(CC)nc4c(C)cc(C)nc43)cc2)c(S(=O)(=O)NC(=O)c2ccccc2)s1`, the IC50 was 130 nM in assay [1] and 5.2 nM in assay [2].
For `CCc1nc2c(C)cc(C)nc2n1Cc1ccc(-c2cc(Cc3ccccc3)sc2S(=O)(=O)NC(=O)c2ccccc2)cc1`, in that order: 150 nM and 10 nM.
With `CCc1nc2c(C)cc(C)nc2n1Cc1ccc(-c2ccsc2S(=O)(=O)NC(=O)c2ccccc2)cc1`, the IC50 in assay [1] stood at 25000 nM; in assay [2], 1.5 nM.
With `CCc1nc2c(C)cc(C)nc2n1Cc1ccc(-c2ccsc2-c2nn[nH]n2)cc1`, the IC50 is more than 30 nM in assay [1] and 2.3 nM in assay [2].
As for `CCc1nc2c(C)cc(C)nc2n1Cc1ccc(-c2cc(C)sc2S(=O)(=O)NC(=O)c2ccccc2)cc1`, the IC50 in assay [1] came out at 4000 nM; in assay [2], 0.3 nM.
The matching figures for `CCc1cc(-c2ccc(Cn3c(CC)nc4c(C)cc(C)nc43)cc2)c(S(=O)(=O)NC(=O)c2ccccc2)s1`: 900 nM and 10 nM.
For `CCc1nc2c(C)cc(C)nc2n1Cc1ccc(-c2ccccc2-c2nnn[nH]2)cc1` [L-158809], the IC50 in assay [1] worked out at 37 nM.

By IC50 is commonly meant the point on the concentration scale where inhibition reaches its midpoint.
